Tests used:
[1] = Bulk, granule and pellet density measurement; format: physicochemical
Source text: (§1) The increase in density of the granulated material relative to the non-granulated material results in improved flow characteristics which facilitate easier handling during manufacturing processes such as formulation. Bulk and granulated densities can be measured with a measuring cylinder. The values for the bulk (ρb) and tap (ρt) densities can be used to calculate index of compressibility (% Compressibility), which is indicative of the flow properties of the material. The % Compressibility can be calculated by the following formula: % Compressibility=[(ρt−−ρb)/ρt-]×100%. See, e.g., The theory and practice of industrial pharmacy, by L. Lachman, H. Lieberman, and J. Kanig, in Varghese Publishing House, 3rd Indian Edition, (Hind Rajasthan Bldng, Dadar Bombay 400 014), 1987, p. 184. Also, flowability of the material can be determined by Flodex analysis. The Flodex Test Apparatus is ideal for determining the intrinsic flowability of powders (which is recommended for quality control of powders). The Flodex instrument includes a complete set of index flow disks with opening of different diameter. A tested powder is allowed to flow through the opening. […] See, e.g., Composite Method to Quantify Powder Flow as a Screening Method in Early Tablet or Capsule Formulation Development, by Michael K. Taylor, Jeri Ginsburg, Anthony Hickey, and Ferdous Gheyas, in AAPS PharmSciTech, 2000, 1(3): article 18.

[2] = Flowability of the bulk material; format: physicochemical; details: 500 μm sieved bulk non-granulated material
Source text: as §1

[3] = Regional absorption studies; details: in vivo

With `CCO[C@@H]1OC(=O)C[C@@H]1NC(=O)[C@@H]1CCCN1C(=O)[C@@H](NC(=O)c1ccc(N)c(Cl)c1)C(C)(C)C` [compound of Formula (I)] the “density of the bulk material” value ([1]; 500 μm sieved bulk non-granulated material) was “around 0.24 g/cm^3”, the “density of the natural form” value ([1]; natural (non-granulated) form) was “about 0.2 g/cm^3” and the flowability [2] was “very poor flowability”. The regional absorption [3] was “colonic absorption”.

Source: patent US20080070972A1, “Controlled release formulations” (priority 2006, published 2008)
